The values below come from patent publication US8193157B2, “Antiviral therapies” (priority 2005, dated 2012).

≈ marks a conversion by molar mass, not a printed value. Read-outs that look alike come from different tables or passages of the source. Marks after values point to notes of the source that are not given here. A value given as a limit tells only on which side of the number the result lay.

Test [1] has as its system AB-resistant HIV-1 (N44.3), glycan deletions N461P and N635K. The test can be described thus: Anti-HIV activity against AB-resistant HIV-1 strain in CEM cells. The format is cell-based. The conditions noted are these: AB-resistant virus strain (N461P, N635K).
Test [2] concerns HUT-78/HIV + Sup T-1. The test can be described thus: Giant cell formation in a co-cultivation assay HUT-78/HIV + Sup T-1. Type of test: cell-based.
Test [3] deals with HCVpp (1a). The test can be described thus: HCV pseudoparticle HCVpp (1a) entry into Huh7 cells, luciferase activity. Type of test: cell-based. Particulars: for EC50: Huh7 cells, luciferase activity, mean ±SD. An excerpt:
(§1) Production of pseudoparticles (HCVpp) and cell culture infection. To produce HCVpp, 293T cells (1.2×10^6) were lipofected at a 1:2 ratio of a NLluc^+env^− reporter vector and a vector expressing the HCV envelope glycoproteins as previously described (Bertaux and Dragic, 2006). HCV envelope glycoprotein-encoding sequences corresponding to subtypes 1b and 2b were PCR-amplified from patient sera starting from the last 60 amino acids in the Core to the end of glycoprotein E2. Supernatants were collected 48 hours post lipofection, filtered (0.45μ) and stored at −80° C. until further use. HCVpp were tested by infection of Huh7 cells (5×10^4) and measuring luciferase activity (relative light units, RLU) 48 hours post infection using the Luciferase assay system according to the manufacturer's instructions.
(§2) To measure inhibition of HCVpp (1a,1b,2b) entry into Huh7 cells by CBA and polyanions, an essentially similar procedure has been used as described above for infectious HCVcc (2a).
(§3) In order to reveal whether CBA also act at the level of HCV entry, we evaluated their ability to inhibit entry of pseudoparticles comprising the HCV envelope glycoproteins E1 and E2 into Huh-7 cells.

Test [4] relates to Influenza A H3N2. Type of test: cell-based.
For test [5], the system named is Influenza A H1N1. The format is cell-based.
The subject of test [6] is Influenza B. Type of test: cell-based. Particulars: MDCK cell cultures.
Test [7] relates to HIV-1 (NL4.3). Briefly: Anti-HIV activity of Alcian Blue against HIV-1 (NL4.3) in CEM cells.
Procedure: Compounds were tested against HIV-1 strains (HE, NL43, MN, IIIB), HIV-2 strains (ROD, EHO, RF), and SIV (MAC251) for inhibition of virus-induced cytopathicity in MT-4 cells (or CEM or C8166 or Molt4/C8 cells), using the colorimetric test described by Pauwels et al. in J. Virol. […] For example microtiter 96-well plates containing ˜3×10^5 CEM cells/ml, infected with 100 CClD50 of HIV per ml and containing appropriate dilutions of the test compounds were used.
A rapid and automated assay procedure was used for the in vitro evaluation of anti-HIV agents. An HTLV-1 transformed T4-cell line MT-4, which was previously shown to be highly susceptible to and permissive for HIV infection, can serve as the target cell line. Inhibition of the HIV-induced cytopathogenic effect was used as the end point. The viability of both HIV- and mock-infected cells was also assessed spectrophotometrically via in situ reduction of 3(4,5-dimethylthiazol-2-yl)-2,5-diphenyltetrazolium bromide (MTT). Methods comprise for example the microscopic examination of CEM, C8166 or Molt4/C8 giant (syncytium) cell formation, after 4 to 5 days of incubation at 37° C. in a CO2-controlled humidified atmosphere. […] The percent protection achieved by the compound in HIV-infected cells is calculated by the following formula:
Test [8] has as its system HIV-1 (strain IIIB). The format is cell-based. The conditions noted are these: for EC50: CEM cells.
Test [9] relates to HIV-2 (strain ROD). The test can be described thus: Anti-HIV assay, inhibition of HIV-2(ROD)-induced cytopathicity in CEM cells. The format is cell-based. The conditions noted are these: virus-induced cytopathicity, mean ±SD.
Test [10] deals with HCVcc (subtype 2a). Briefly: Infectious HCVcc (subtype 2a) infection of Huh7 cells, luciferase activity. Type of test: cell-based, HCV. How it is done: Huh7 cells (2×10^4) were plated and 24 hours later infected with supernatants containing infectious HCVcc pre-mixed with serial dilutions of lectins or polyanions. Mannan (2.5 mg/ml; Sigma) was added to some of the mixtures prior to Huh7 infection. After 24 hours post infection, the mixture of virus and test compounds was replaced by fresh medium, cells were brought at 37° C. and luciferase activity was measured in the cell lysates 24 hours later.
The inhibitory activities of carbohydrate binding small molecules and agents against infectious HIV-1 (strain IIIB), HIV-2 (strain ROD) and HCVcc (subtype 2a) were evaluated in human T lymphocyte cells (CEM) and human hepatocellular carcinoma cells (Huh-7), respectively (Table 1). […] The effect of mannan on the antiviral activity of the CBA was investigated.

Test [11] deals with HCVpp (1b). The test can be described thus: HCV pseudoparticle HCVpp (1b) entry into Huh7 cells, luciferase activity. The format is cell-based. Particulars: mean ±SD.
Source text: as §1, §2, §3

Test [12] concerns HCVpp (2b). Briefly: HCV pseudoparticle HCVpp (2b) entry into Huh7 cells, luciferase activity. The format is cell-based. The conditions noted are these: mean ±SD.
Source text: as §1, §2, §3

The subject of test [13] is VSVpp. The format is cell-based, VSV. The conditions noted are these: read-out: EC50 VSVpp (C8166).
Test [14] relates to HIV-1(IIIB) capture by Raji/DC-SIGN cells. Briefly: Inhibition of HIV-1 capture by Raji/DC-SIGN cells (p24 Ag). The conditions noted are these: HIV-1 exposed 30 min to compound before addition to cells. Type of test: cell-based. The protocol:
Inhibition of HIV-1 capture by Raji/DC-SIGN cells. HIV-1 particles (2.2 μg p24/ml) were exposed to serial dilutions of the test compounds (400 μl) for 30 min. Then, the drug-exposed virus suspensions (500 μl) were mixed with Raji/DC-SIGN cell suspensions (500 μl; 10^6 cells) for 60 min at 37° C. after which the cells were thoroughly washed twice with 40 ml culture medium as described above. […] The Raji/DC-SIGN cell cultures were then analysed for HIV-1 p24 Ag content.
Raji B-lymphocyte cells were modified to express DC-SIGN at their cell surface (Geijtenbeek et al., 2000; Wu et al., 2004). When Raji/DC-SIGN cells were exposed to cell-free HIV-1(IIIB) particles, they were able to efficiently capture the virus particles as evidenced by retention of p24 antigen of HIV-1 on the Raji/DC-SIGN cells (˜1200 pg p24). […] The CBA could prevent >90% of HIV-1 capture at concentrations >2 μM for GNA, HHA and CA; >10 μM for UDA and >60 μM for PRM-A.

Setting [15] is: in the presence of mannan 2.5 mg/ml, read-out: HIV-1 EC50 +Mannan (2.5 mg/ml).
Setting [16] is: virus-induced cytopathicity, mean ±SD, read-out: EC50 HIV-1(IIIB) (CEM).
[17] abbreviates: without mannan (Table 3), read-out: HIV-1 EC50 As such.
[18] abbreviates: in the presence of mannan 2.5 mg/ml, read-out: HCV(2a) EC50 +Mannan (2.5 mg/ml).
The mark [19] stands for this setting: luciferase activity, mean ±SD, read-out: EC50 HCV (2a) (Huh7).
Where [20] appears, read: without mannan (Table 3), read-out: HCV(2a) EC50 As such.

With Alcian Blue, the “EC50 HIV-1R (N44.3) (CEM)” value in test [1] is above 50 µg/mL. Further, the “EC50 HUT-78/HIV + Sup T-1” value in test [2] is reported as 4.5 ± 1.5^c μg/ml. For the same molecule, the “EC50 HCVpp (1a)” value in [3] (Alcian Blue table) is 30^d μg/ml. The “EC50 Influenza A H3N2” value in test [4] is above 20 µg/mL. In test [5], the “EC50 Influenza A H1N1” value is above 20 µg/mL. Further, the “EC50 Influenza B” value in [6] is above 20 µg/mL. Moreover, the “EC50 HIV-1 (NL4.3) (CEM)” value in test [7] came out at 5 ± 1 µg/mL.
Take `CN[C@@H]1[C@H](O[C@@H]2OC[C@@H](O)[C@H](O)[C@H]2O)[C@@H](O)[C@H](O[C@H]2c3cc(C)c(C(=O)N[C@H](C)C(=O)O)c(O)c3-c3c(cc4c(c3O)C(=O)c3cc(OC)cc(O)c3C4=O)[C@@H]2O)O[C@@H]1C` [PRM-A, pradimicin A, reference compound]: the EC50 in [8] (setting [15]) is 40000 ± 13000 nM; in [8] (setting [16]), 3360 ± 1200 nM; in [8] (setting [17]), 5300 ± 780 nM; in test [9] it was 1800 nM; in test [10] (setting [18]), above 30000 nM; in [10] (setting [19]), 3610 ± 780 nM. Further, the EC50 in [10] (setting [20]) is 3610 ± 780 nM; in test [3] it was 1170 ± 310 nM; in [11] it was 1670 ± 60 nM; in test [12], 924 ± 156 nM; in [13] it was above 60000 nM. Further, the “concentration preventing >90% of HIV-1 capture by Raji/DC-SIGN cells” value in [14] is above 60 µM. In addition, the “EC50 Influenza A H3N2” value in test [4] came to 1.6 µg/mL (≈ 1.9 µM). Moreover, the “EC50 Influenza A H1N1” value in test [5] is 1.9 µg/mL (≈ 2.26 µM). Moreover, in [6], the “EC50 Influenza B” value was 2.4 µg/mL (≈ 2.85 µM).

B1: UDA: GlcNAc-specific plant lectin from Urtica dioica (stinging nettle) (protein, UniProt P11218 24-372, looked up)
Lectin/endochitinase 1: QRCGSQGGGGTCPALWCCSIWGWCGDSEPYCGRTCENKCWSGERSDHRCGAAVGNPPCGQDRCCSVHGWCGGGNDYCSGSKCQYRCSSSVRGPRVALSGNSTANSIGNVVVTEPLFDQMFSHRKDCPSQGFYSYHSFLVAAESFPAFGTIGDVATRKREVAAFLAHISQATSGERSDVENPHAWGLCHINTTTVTENDFCTSSDWPCAAGKKYSPRGPIQLTHNFNYGLAGQAIGEDLIQNPDLVEKDPIISFKTALWFWMSQHDNKPSCHDIVLNANSAANRIPNKGVIGNIISRAFGHDDFAVRSSSIGFYKRYCDMLGVSYGHDLKYWFDNTPSSEFQRIQMRVAA
Turning to B1, the EC50 in test [8] (setting [15]) turned out to be 459 nM; in test [8] (setting [16]) it was 140 ± 40 nM; in test [8] (setting [17]), 149 ± 40 nM; in test [9], 391 ± 106 nM; in [10] (setting [18]) it was 560 ± 108 nM; in test [10] (setting [19]), 176 ± 29 nM. In addition, the EC50 in test [10] (setting [20]) was 176 ± 29 nM; in test [3], 32 ± 15 nM; in test [11] it was 19 ± 22 nM; in test [12], 50 ± 54 nM; in test [13] it was above 11000 nM. In addition, in test [8] (mannan), the “decrease of antiviral activity against HIV-1 in the presence of mannan” value is listed as 3 fold. Moreover, the “concentration preventing >90% of HIV-1 capture by Raji/DC-SIGN cells” value in [14] is above 10 µM. Besides, in test [4], the “EC50 Influenza A H3N2” value was 0.99 µg/mL. Also, the “EC50 Influenza A H1N1” value in test [5] came to 4.1 µg/mL.
